In US8734849B2, “Multiparticle pharmaceutical dosage form containing a mucoadhesively formulated peptide or protein active substances method for producing said pharmaceutical dosage form” (Evonik Roehm GmbH, priority 2003, dated 2014):
Where a SMILES comes first, the peptide text is derived from it. [ ]: non-standard residue; d: D form. dPhe(4-Cl) = N[C@H](Cc1ccc(Cl)cc1)C(=O)O; d2Nal = N[C@H](Cc1ccc2ccccc2c1)C(=O)O; dCit = NC(=O)NCCC[C@@H](N)C(=O)O; d3Pal = N[C@H](Cc1cccnc1)C(=O)O

Assay: Solubility in water according to DAB 10
Format: physicochemical
Description: The solubility in water for the active substance and the substance or substances forming the lipophilic matrix can be defined as specified in DAB 10 (Deutsches Arzneibuch, 10th edition with 3rd supplement 1994, Deutscher Apothekerverlag, Stuttgart und Govi Verlag, Frankfurt/Main, 2nd supplement (1993), IV Allgemeine Vorschriften, pp. 5-6, “Löslichkeit und Lösungsmittel”; see also Ph. Eur. Jul. 4, 2004). The solubility is defined by the number of parts by volume of solvent for 1 part by weight of substance or drug. The definition of “sparingly soluble” includes substances which require from 30 to 100 parts by volume of solvent for 1 part by weight of substance or drug, and the definition of “slightly soluble” includes substances which require from 100 to 1000 parts by volume of solvent for 1 part by weight of substance or drug.

| Compound | solubility in water according to DAB 10 | solubility (equivalent of the DAB 10 parts) [µg/mL] | solubility in water, equivalent [µg/mL] |
| --- | --- | --- | --- |
| CC(=O)N[C@H](Cc1ccc2ccccc2c1)C(=O)N[C@H](Cc1ccc(Cl)cc1)C(=O)N[C@H](Cc1cccnc1)C(=O)N[C@@H](CO)C(=O)N[C@@H](Cc1ccc(O)cc1)C(=O)N[C@H](CCCNC(N)=O)C(=O)N[C@@H](CC(C)C)C(=O)N[C@@H](CCCNC(=N)N)C(=O)N1CCC[C@H]1C(=O)N[C@H](C)C(N)=O [Cetrorelix acetate] (Ac-[d2Nal][dPhe(4-Cl)][d3Pal]SY[dCit]LRP[dA]-NH2) | at least 1000 parts of water for 1 part of active substance | 1000 |  |
| Erythropoetin alfa: slightly soluble protein active substance | at least 500 parts of water for 1 part of active substance |  | 2000 |
